Laboratory results: paper doi:10.1101/844506v1 (biorxiv, 2019)

Molecular target: B8CYA8 (β-glucosidase from Halothermothrix orenii) (Halothermothrix orenii, UniProt B8CYA8)
Experiment: melting temperature shift
Assay type: binding
Settings: 0.5 M glucose

B8CYA8 (β-glucosidase from Halothermothrix orenii), sequence (B8CYA8 1-451): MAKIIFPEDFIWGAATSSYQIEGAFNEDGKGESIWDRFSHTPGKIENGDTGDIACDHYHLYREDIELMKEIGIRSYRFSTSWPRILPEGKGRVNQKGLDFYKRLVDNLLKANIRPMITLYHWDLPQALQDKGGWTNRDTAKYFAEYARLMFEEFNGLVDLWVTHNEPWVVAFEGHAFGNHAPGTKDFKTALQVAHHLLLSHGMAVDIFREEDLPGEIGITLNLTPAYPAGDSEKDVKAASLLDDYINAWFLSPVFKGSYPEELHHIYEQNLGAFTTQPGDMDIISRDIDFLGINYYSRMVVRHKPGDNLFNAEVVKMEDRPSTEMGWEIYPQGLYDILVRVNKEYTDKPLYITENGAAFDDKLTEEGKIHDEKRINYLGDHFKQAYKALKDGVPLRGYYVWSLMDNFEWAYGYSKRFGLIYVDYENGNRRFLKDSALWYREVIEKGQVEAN

OC[C@H]1OC(O)[C@H](O)[C@@H](O)[C@@H]1O (stereo partly shown) [glucose]
increase in melting temperature: 4-5 °C
